# Square brackets hold non-standard residues; d marks the D form. Ends that are not written are not given here. Peptide text beside a SMILES is read from it.
# Tests used:
# [1] = tested on: Pseudomonas sp (Pseudomonas aeruginosa); type: cell-based, Pseudomonas aeruginosa ATCC 15915
# Protocol: (§1) Antimicrobial activities were determined by the microtiter broth dilution method recommended by the National Committee of Laboratory Safety and Standards (NCLSS), adapted for AMPs (Wiegand et al, [2008]). Briefly, overnight bacterial cell cultures were brought to an exponential growth state (OD600 = 0.4) in MH broth and diluted to a final concentration of 5 × 10^5 CFU/mL. In all, 1:2 peptide serial dilutions were prepared in 96-well polypropylene plates (Greiner, Frickenhausen, Germany), in MH medium containing 0.2% (w/v) of bovine serum albumin (BSA) and 0.02% glacial acetic acid. […] The lowest concentration with no colonies was taken as MBC. The results are the average of three independent studies.
# [2] = tested on: horse erythrocytes; type: cell-based
# Protocol: Peptide toxicity was tested on horse erythrocytes (Sandín et al, [2021]). Horse defibrinated blood was washed three times in phosphate buffer saline (PBS) pH 7.2 by centrifugation at 3× 3000 rpm for 10 min, to remove excess hemoglobin in the supernatant and then diluted tenfold in PBS. Next, 50 μL of erythrocytes were added to a 1.5 mL polypropylene tube and incubated with 50 μL of a 1:2 peptide serial dilution in PBS. An erythrocyte disruption (ED) control was prepared by adding 50 μL of 0.1% TritonX-100 in PBS instead of the peptides and an intact erythrocyte (IC) control by adding 50 μL of PBS alone. All samples and controls were incubated for 2 h at 37 °C. Samples were centrifuged at 3000 rpm for 3 min, and the supernatants were transferred to a polystyrene 96-well plate and inspected for ED by reading the absorbance at 540 nm in a Tecan Spark instrument (Tecan, Männedorf, Switzerland). The results are the average of three independent studies. The hemolysis percentage was calculated as: Hemolysis%=Sample−IC/ED−IC×100
# [3] = tested on: Staphylococcus aureus; type: cell-based, Staphylococcus aureus ATCC 12600
# Protocol: as §1
# [4] = tested on: Acinetobacter baumannii; type: cell-based, Acinetobacter baumannii ATCC 15308
# Protocol: as §1
# [5] = tested on: Escherichia coli; type: cell-based, Escherichia coli BW25113
# Protocol: as §1
# [6] = type: in vitro ADME
# Protocol: 500 µL of 1 mM peptide stock in MiliQ water were mixed with 500 µL of human serum (Sigma-Aldrich, St. Louis, MO, USA). The mixture was incubated at 37 °C with shaking, and at various time points aliquots were taken and proteolysis was stopped with cold acetonitrile (80% in MiliQ water). The samples were chilled at 4 °C for 10 min to precipitate serum proteins, and centrifuged at 13,000 rpm at 4 °C for 15 min. The supernatant was collected and analyzed by LC and LC-MS with a –60% linear gradient of solvent B (0.036%TFA in ACN) into A (0.045% TFA in H2O) over 15 min at 1 mL/min flow rate. Unaltered peptide was determined by peak integration, expressed as the percent of the amount at 0 min, and data were fitted to a one-phase exponential decay model using GraphPad Prism 8.01 to estimate half-life time (t1/2). The results are the average of three independent experiments.
# [7] = tested on: Listeria monocytogenes; type: cell-based, Listeria monocytogenes ATCC 19112
# Protocol: as §1
# [8] = in vitro; type: cell-based; conditions: human, MRC-5 cells
# Protocol: (§2) Toxicity in MRC-5 and HepG2 cells was tested by the MTT assay, as described (Bello-Madruga et al, [2023]). Cell lines were maintained in Eagle’s minimum essential medium (MEMα) supplemented with 10% fetal bovine serum (FBS). Cells were cultured in 75-cm^2 flasks and then transferred to polystyrene 96-well plates, at 3 × 10^4 cells per well, and incubated overnight for attachment to the well surface. Then culture media was removed and 1:2 peptide serial dilutions in MEMα were added to each well and later incubated for 4 h. After incubation, peptides were removed and 100 μL of 0.5 mg/mL MTT staining solution in MEMα supplemented with 10% FBS was added to cells and incubated for 1.5 h at 37 °C. Formazan crystals in living cells were detected after disruption with 200 μL dimethyl sulfoxide and then absorbance was measured at 570 nm in a Tecan Spark instrument (Tecan, Männedorf, Switzerland). The results are the average of three independent studies.
# [9] = Cytotoxicity, MTT assay; type: cell-based; conditions: human, HepG2 cells, 4 h peptide incubation in MEMα, average of three studies, read-out: LC50 (HepG2 cells)
# Protocol: as §2
# [10] = tested on: Enterococcus faecium; type: cell-based, Enterococcus faecium ATCC 19434
# Protocol: as §1
# [11] = tested on: E. coli CFT073; type: cell-based
# Protocol: as §1
# [12] = tested on: E. coli 1166795; type: cell-based
# Protocol: as §1
# [13] = tested on: A. baumannii 3878; type: cell-based
# Protocol: as §1
# [14] = tested on: P. aeruginosa 827632; type: cell-based
# Protocol: as §1
# [15] = tested on: P. aeruginosa 827651; type: cell-based
# Protocol: as §1
# [16] = tested on: A. baumannii 3880; type: cell-based
# Protocol: as §1
# [17] = tested on: MRC-5 cells; assay: in vitro; type: cell-based
# Protocol: as §2
compound,measurement,setting,value
CC(C)C[C@@H](NC(=O)[C@@H](CC(N)=O)NC(=O)[C@H](N)Cc1c[nH]cn1)C(=O)N[C@H](Cc1ccccc1)C(=O)N[C@H](CCCNC(=N)N)C(=O)N[C@H](CCCCN)C(=O)N[C@H](CC(C)C)C(=O)N[C@@H](C(=O)N[C@H](Cc1c[nH]cn1)C(=O)N[C@H](CCCNC(=N)N)C(=O)N[C@H](CC(C)C)C(=O)N[C@H](Cc1ccccc1)C(=O)N[C@H](CCCNC(=N)N)C(=O)N[C@H](CCCNC(=N)N)C(=O)N[C@H](CC(N)=O)C(=O)N[C@H](Cc1ccccc1)C(=O)NCC(=O)N[C@H](Cc1ccc(O)cc1)C(=O)N[C@@H](C(=O)N[C@H](CC(C)C)C(=O)N[C@H](CCCNC(=N)N)C(=O)N[C@H](CO)C(=O)N[C@@H](C(N)=O)C(C)C)[C@H](C)O)[C@H](C)O [dHBP-5] (H-[dH][dN][dL][dF][dR][dK][dL][dT][dH][dR][dL][dF][dR][dR][dN][dF]G[dY][dT][dL][dR][dS][dV]-NH2),MIC Pseudomonas sp,[1],0.2 µM
same,Hemolysis (250 µM peptide),[2],29 ± 1
same,MIC S. aureus,[3],0.8 µM
same,MIC A. baumannii,[4],0.2 µM
same,MIC E. coli,[5],0.1 µM
same,half-life in human serum,[6],exceeding 6 hours
same,MIC L. monocytogenes,[7],0.4 µM
same,CC50 at 4 h,[8],30 ± 1 µM
HNLFRKLTHRLFRRNFGYTLRSV-NH2 [HBP-5],MBC Pseudomonas sp,[1],0.8 µM
same,MIC Pseudomonas sp,[1],0.8 µM
same,CC50 at 4 h,[9],80 µM
same,MBC E. faecium,[10],6.3 µM
same,MIC E. faecium,[10],3.1 µM
same,Hemolysis (250 µM peptide),[2],23 ± 1
same,MBC E. coli CFT073,[11],0.8 µM
same,MIC E. coli CFT073,[11],0.4 µM
same,MBC E. coli 1166795,[12],< 0.1 µM
same,MIC E. coli 1166795,[12],< 0.1 µM
same,MBC A. baumannii 3878,[13],0.2 µM
same,MIC A. baumannii 3878,[13],0.2 µM
same,MBC P. aeruginosa 827632,[14],1.6 µM
same,MIC P. aeruginosa 827632,[14],1.6 µM
same,MBC P. aeruginosa 827651,[15],1.6 µM
same,MIC P. aeruginosa 827651,[15],0.8 µM
same,MBC A. baumannii 3880,[16],0.4 µM
same,MIC A. baumannii 3880,[16],0.4 µM
same,MBC S. aureus,[3],6.3 µM
same,MIC S. aureus,[3],6.3 µM
same,MBC A. baumannii,[4],0.2 µM
same,MIC A. baumannii,[4],0.2 µM
same,MBC E. coli,[5],0.4 µM
same,MIC E. coli,[5],0.4 µM
same,MBC L. monocytogenes,[7],3.1 µM
same,MIC L. monocytogenes,[7],1.6 µM
same,"LC50 (MRC-5 cells, µM)",[17],69 µM
same,CC50 at 4 h,[8],69 ± 2 µM
HNLFRKLTHRLFRRNFGYTL-NH2 [HBP-5 [1–20]],MIC Pseudomonas sp,[1],0.4 µM
same,Hemolysis (250 µM peptide),[2],24 ± 2
same,MIC S. aureus,[3],6.3 µM
same,MIC A. baumannii,[4],0.4 µM
same,MIC E. coli,[5],0.4 µM
same,MIC L. monocytogenes,[7],1.6 µM
same,CC50 at 4 h,[8],63 ± 1 µM
